Usually IC50 stands for the concentration that gives 50% inhibition. Higher therefore signals a need for much substance.

The target in assay [1] is T1, Integrin alpha-IIb/beta-3 (Homo sapiens, UniProt P05106+P08514). Description: Affinity for purified human platelet glycoprotein alpha IIb beta3 integrin receptor in ELISA. For orientation: ELISA stands for enzyme-linked immunosorbent assay.
For assay [2], the target named is T1, Integrin alpha-IIb/beta-3. Briefly: Inhibition of fibrinogen (Fg) interaction with GPIIb/IIIa in gel filtered platelets. It counts as functional.
Assay [3] can be described thus: Inhibition of platelet aggregation in citreated human platelet rich plasma (PRP).

T1 sequence (P05106 27-788 limits assumed): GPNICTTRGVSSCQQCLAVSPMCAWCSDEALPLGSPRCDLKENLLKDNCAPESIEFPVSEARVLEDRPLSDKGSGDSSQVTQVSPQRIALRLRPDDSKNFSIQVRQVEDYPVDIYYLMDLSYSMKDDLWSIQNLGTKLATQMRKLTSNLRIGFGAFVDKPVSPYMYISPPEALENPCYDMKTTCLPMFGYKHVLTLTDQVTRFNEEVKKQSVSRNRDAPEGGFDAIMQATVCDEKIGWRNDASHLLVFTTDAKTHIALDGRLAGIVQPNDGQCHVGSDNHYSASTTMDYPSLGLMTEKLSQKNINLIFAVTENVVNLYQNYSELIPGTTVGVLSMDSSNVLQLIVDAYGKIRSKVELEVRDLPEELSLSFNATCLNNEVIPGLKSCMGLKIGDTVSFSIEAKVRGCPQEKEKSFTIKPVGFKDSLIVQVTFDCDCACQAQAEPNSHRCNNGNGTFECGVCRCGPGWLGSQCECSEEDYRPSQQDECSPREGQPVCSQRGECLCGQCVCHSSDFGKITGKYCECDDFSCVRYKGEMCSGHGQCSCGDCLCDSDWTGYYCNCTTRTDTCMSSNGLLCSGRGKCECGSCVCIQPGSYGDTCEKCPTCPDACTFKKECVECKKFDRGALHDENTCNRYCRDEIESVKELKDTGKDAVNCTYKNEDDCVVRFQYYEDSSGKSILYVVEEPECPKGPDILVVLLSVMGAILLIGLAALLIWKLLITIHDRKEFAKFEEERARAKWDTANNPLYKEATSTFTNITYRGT
T1 sequence (P08514 32-887 limits assumed): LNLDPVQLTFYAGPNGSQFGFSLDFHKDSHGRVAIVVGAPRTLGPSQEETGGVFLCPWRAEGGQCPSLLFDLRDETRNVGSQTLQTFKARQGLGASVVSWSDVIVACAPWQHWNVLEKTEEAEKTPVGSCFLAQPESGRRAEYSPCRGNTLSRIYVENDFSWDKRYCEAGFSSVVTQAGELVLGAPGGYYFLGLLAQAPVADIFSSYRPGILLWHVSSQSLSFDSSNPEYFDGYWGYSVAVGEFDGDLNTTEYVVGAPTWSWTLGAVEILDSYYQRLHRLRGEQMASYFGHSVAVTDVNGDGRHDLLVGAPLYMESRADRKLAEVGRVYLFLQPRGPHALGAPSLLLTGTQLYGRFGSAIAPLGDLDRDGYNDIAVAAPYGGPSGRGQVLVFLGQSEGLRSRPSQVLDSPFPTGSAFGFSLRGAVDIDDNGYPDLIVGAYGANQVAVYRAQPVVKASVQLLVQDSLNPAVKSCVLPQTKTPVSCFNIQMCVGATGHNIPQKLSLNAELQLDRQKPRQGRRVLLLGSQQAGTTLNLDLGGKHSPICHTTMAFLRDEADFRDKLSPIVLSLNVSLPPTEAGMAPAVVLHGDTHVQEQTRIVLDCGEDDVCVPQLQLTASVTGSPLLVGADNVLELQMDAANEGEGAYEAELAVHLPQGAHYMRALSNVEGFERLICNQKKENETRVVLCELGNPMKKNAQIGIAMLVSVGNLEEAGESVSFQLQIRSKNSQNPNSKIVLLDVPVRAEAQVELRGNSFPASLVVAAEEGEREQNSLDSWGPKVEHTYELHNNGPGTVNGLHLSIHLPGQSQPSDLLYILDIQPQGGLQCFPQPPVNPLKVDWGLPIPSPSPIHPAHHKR
T1 sequence (P08514 891-1039 limits assumed): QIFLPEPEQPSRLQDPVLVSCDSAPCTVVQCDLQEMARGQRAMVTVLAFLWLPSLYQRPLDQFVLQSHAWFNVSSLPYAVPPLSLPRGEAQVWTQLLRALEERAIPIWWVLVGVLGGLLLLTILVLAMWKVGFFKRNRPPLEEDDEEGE

On to `N=C(N)c1ccc(C2=NOC(CC(=O)NCC(NP(=O)(O)O)C(=O)O)C2)cc1` (stereo not given), for which the half-maximal inhibitory concentration (IC50) in assay [1] was 0.0026 µM; in assay [2] it was 0.229 µM.

In assay [2], `N=C(N)c1ccc(C2=NOC(CC(=O)NCCC(=O)O)C2)cc1` (stereo not given) yielded a half-inhibitory concentration (IC50) of 0.14 µM.

`CCCCOP(=O)(NC(CNC(=O)CC1CC(c2ccc(C(=N)N)cc2)=NO1)C(=O)O)OCCCC` (stereo not given): the concentration for half-maximal inhibition (IC50) in assay [1] stood at 0.0012 µM; in assay [2] it was 0.055 µM.

Turning to `CC(C)OP(=O)(NC(CNC(=O)CC1CC(c2ccc(C(=N)N)cc2)=NO1)C(=O)O)OC(C)C` (stereo not given), the IC50 came to 0.00086 µM in assay [1] and 0.073 µM in assay [2].

Regarding `COP(=O)(NC(CNC(=O)CC1CC(c2ccc(C(=N)N)cc2)=NO1)C(=O)O)OC` (stereo not given), the IC50 is 0.00055 µM in assay [1] and 0.054 µM in assay [2].

Turning to `CCCCOC(=O)N[C@@H](CNC(=O)C[C@H]1CC(c2ccc(C(=N)N)cc2)=NO1)C(=O)O`, the half-maximal inhibitory concentration (IC50) in assay [3] was 0.05 µM; in assay [2], 0.021 µM.

In the case of `CCOP(=O)(NC(CNC(=O)CC1CC(c2ccc(C(=N)N)cc2)=NO1)C(=O)O)OCC` (stereo not given), the IC50 was 0.0017 µM in assay [1] and 0.102 µM in assay [2].

Consider `C=CCOP(=O)(NC(CNC(=O)CC1CC(c2ccc(C(=N)N)cc2)=NO1)C(=O)O)OCC=C` (stereo not given), for which the IC50 in assay [1] was 0.0015 µM; in assay [2], 0.046 µM.

The values are drawn from ChEMBL document CHEMBL1132008, “Isoxazoline GPIIb/IIIa antagonists bearing a phosphoramidate” (Bioorg Med Chem Lett, 1999).
